Test results reported in paper PMC7278228, “Chemical space exploration based on recurrent neural networks: applications in discovering kinase inhibitors” (Journal of Cheminformatics, 2020).

Experiments:
Assay type in all cases: biochemical
CDK4 [1] = molecular target: T1, CDK4 (Homo sapiens, UniProt P11802); experiment: mobility shift kinase assay, % inhibition at […]
CDK4 [2] = molecular target: T1, CDK4; experiment: mobility shift kinase assay, % inhibition at […]; remark: listed apart in the source
Pim1 = Pim1 (Homo sapiens, UniProt P11309); experiment: mobility shift kinase assay ([…] Pim1, […] ATP, FAM-P20)
CDK4 [3] = molecular target: T1, CDK4; experiment: mobility shift kinase assay ([…] CDK4, […] ATP, FAM-P8)

T1 sequence (P11802 2-303): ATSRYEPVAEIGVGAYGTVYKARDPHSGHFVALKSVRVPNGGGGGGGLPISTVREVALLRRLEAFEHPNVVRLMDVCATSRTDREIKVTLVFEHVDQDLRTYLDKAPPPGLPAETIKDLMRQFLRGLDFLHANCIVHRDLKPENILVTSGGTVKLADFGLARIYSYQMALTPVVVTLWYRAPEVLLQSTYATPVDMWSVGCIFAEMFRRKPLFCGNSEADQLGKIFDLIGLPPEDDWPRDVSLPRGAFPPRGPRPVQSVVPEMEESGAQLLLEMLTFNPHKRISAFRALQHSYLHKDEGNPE
T1 sequence (P30281 whole entry partner): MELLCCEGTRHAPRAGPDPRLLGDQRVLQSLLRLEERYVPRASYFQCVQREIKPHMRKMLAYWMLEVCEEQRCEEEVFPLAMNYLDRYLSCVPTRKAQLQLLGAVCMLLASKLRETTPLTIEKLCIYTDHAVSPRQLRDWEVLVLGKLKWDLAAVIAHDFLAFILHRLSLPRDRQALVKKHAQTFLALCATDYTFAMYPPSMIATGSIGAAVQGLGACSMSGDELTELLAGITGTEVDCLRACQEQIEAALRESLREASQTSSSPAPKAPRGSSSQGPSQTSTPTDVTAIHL
Pim1, sequence (P11309 whole entry): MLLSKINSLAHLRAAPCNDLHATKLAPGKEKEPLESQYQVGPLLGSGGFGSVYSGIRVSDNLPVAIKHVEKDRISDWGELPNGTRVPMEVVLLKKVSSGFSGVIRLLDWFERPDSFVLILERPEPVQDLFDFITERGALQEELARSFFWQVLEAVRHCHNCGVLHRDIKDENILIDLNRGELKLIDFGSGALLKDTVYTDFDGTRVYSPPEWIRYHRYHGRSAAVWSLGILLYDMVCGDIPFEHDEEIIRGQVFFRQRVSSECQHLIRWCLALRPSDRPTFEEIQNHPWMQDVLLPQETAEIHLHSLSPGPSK

SMILES: O=C1N=c2ccccc2=C1c1s/c(=N\N=C2\C(=O)Nc3ccccc32)n(-c2ccc(O)cc2)c1O [AF-399/37285031]
- % inhibition at 10 μM (CDK4 [1]): 57.8 ± 5.0

SMILES: CC(C)n1cc(C(N)=O)c2cnc(Nc3ccc(N4CCNCC4)cc3)nc21 [MJ-115]
- Inhibition for CDK4 at 100 μM (%) (CDK4 [2]): 90.74 ± 1.28

SMILES: Oc1ccc(-c2ccc3nnc(-c4ccc5cccc(OC6CCNCC6)c5n4)n3c2)cc1 [MJ-1055]
- IC50 (Pim1): 0.0096 µM
- IC50 (CDK4 [3]): 25.3 µM
